# Measured values from publication PMC3479019, “Identification and functional analysis of gene cluster involvement in biosynthesis of the cyclic lipopeptide antibiotic pelgipeptin produced by Paenibacillus elgii” (BMC Microbiology, 2012).
# Assays:
# Test in all cases: amino acid adenylation, pyrophosphate release, inorganic pyrophosphatase / malachite green, […] nm
# Assay type in all cases: biochemical
# Conditions in all cases: 5 mM ATP, 10 mM MgCl2, 6 mM amino acid, 100 mM NaCl, 50 mM Tris-HCl pH 7.5, 25 °C
# PlpD A1 = target: T1, PlpD A1 (Paenibacillus elgii, UniProt I1Z6A2)
# T1 construct: pET28a, E. coli BL21(DE3), Ni-purified, His-tag (C-terminal by primers, inferred); borders by primers plpD-A1-F/R, N-term MENILT, C-term GAEYE then LE-tag (translated from primers)
# T1 sequence (I1Z6A2 446-978): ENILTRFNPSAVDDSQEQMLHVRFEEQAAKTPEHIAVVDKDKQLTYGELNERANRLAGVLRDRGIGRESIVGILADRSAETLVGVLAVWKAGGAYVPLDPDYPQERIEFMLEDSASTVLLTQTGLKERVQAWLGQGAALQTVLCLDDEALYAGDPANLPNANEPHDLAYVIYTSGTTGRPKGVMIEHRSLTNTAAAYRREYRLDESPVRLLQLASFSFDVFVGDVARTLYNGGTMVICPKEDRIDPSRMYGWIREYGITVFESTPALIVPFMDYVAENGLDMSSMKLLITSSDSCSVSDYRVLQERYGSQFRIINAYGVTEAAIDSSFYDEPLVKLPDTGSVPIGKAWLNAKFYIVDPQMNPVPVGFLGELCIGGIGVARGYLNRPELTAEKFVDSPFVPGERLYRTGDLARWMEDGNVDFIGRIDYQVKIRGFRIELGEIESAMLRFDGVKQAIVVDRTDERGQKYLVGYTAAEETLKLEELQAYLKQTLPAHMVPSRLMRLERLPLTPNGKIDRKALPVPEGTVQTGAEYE
# PlpE A3 = target: T2, PlpE A3 (Paenibacillus elgii, UniProt I1Z6A3)
# T2 construct: pET28a, E. coli BL21(DE3), Ni-purified, His-tag (C-terminal by primers, inferred); borders by primers plpE-A3-F/R, N-term MAAEQT, C-term ADYVA then KL-tag (translated from primers)
# T2 sequence (I1Z6A3 2324-2843): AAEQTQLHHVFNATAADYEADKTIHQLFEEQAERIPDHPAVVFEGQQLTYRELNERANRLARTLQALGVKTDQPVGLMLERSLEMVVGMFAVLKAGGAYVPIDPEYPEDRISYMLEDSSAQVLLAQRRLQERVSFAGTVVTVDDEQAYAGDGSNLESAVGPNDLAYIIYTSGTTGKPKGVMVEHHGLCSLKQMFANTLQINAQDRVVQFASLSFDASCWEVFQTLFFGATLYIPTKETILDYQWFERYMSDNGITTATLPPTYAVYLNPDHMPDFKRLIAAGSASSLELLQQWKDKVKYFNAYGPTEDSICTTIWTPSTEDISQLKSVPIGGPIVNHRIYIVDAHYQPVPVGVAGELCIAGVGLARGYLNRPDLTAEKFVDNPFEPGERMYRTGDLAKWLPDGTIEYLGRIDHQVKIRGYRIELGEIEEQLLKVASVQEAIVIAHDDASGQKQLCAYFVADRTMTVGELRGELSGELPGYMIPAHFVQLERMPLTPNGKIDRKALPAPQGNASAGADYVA
# PlpF A1 = target: T3, PlpF A1 (Paenibacillus elgii, UniProt I1Z6A4)
# T3 construct: pET28a, E. coli BL21(DE3), Ni-purified, His-tag (N-terminal by primers, stop codon in reverse primer, inferred); borders by primers plpF-A1-F/R, N-term (AS)LSDSE, C-term TGLE (translated from primers)
# T3 sequence (I1Z6A4 entry or part of it): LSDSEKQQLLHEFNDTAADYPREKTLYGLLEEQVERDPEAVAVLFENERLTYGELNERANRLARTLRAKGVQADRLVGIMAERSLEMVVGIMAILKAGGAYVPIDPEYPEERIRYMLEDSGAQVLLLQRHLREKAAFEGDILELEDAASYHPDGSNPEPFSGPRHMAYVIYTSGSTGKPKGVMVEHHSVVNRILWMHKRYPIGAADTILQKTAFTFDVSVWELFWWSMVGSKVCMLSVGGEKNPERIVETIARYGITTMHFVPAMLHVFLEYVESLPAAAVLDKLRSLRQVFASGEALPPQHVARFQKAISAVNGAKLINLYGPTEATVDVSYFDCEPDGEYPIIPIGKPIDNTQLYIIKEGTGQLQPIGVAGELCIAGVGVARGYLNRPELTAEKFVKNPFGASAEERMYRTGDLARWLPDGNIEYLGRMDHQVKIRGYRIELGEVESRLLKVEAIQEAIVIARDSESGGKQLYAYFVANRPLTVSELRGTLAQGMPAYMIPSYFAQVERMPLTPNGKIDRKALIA
compound,measurement,setting,value
NCC[C@H](N)C(=O)O [L-Dab],"amino acid adenylation, pyrophosphate release, inorganic pyrophosphatase / malac",PlpD A1,"PlpD A1, PlpE A3, and Plp F A1 clearly exhibited the highest activity for L-Dab"
N[C@@H](Cc1ccccc1)C(=O)O [L-Phe],"amino acid adenylation, pyrophosphate release, inorganic pyrophosphatase / malac",PlpE A3,"clearly exhibited the highest activity for L-Dab, L-Phe, and L-Ser, respectively"
N[C@@H](CO)C(=O)O [L-Ser],"amino acid adenylation, pyrophosphate release, inorganic pyrophosphatase / malac",PlpF A1,"clearly exhibited the highest activity for L-Dab, L-Phe, and L-Ser, respectively"
